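In this assay, cells in 96-well plates receive the compound at five concentrations for 48 hours. Endpoints are linearly interpolated between the surrounding concentrations. The concentration for 50% growth inhibition is given as GI50. TGI: concentration producing complete growth inhibition.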
Legend:
Test in all cases: NCI tumour cell line growth inhibition, 48 h
BT-549 breast = system: BT-549 breast
HCT-15 colon = system: HCT-15 colon
SK-OV-3 ovarian = system: SK-OV-3 ovarian
SK-MEL-2 melanoma = system: SK-MEL-2 melanoma
MDA-MB-435 = system: MDA-MB-435
IGROV1 ovarian = system: IGROV1 ovarian
OVCAR-4 ovarian = system: OVCAR-4 ovarian
NCI-H226 lung = system: NCI-H226 lung
MCF7 breast = system: MCF7 breast
EKVX NSCLC = system: EKVX NSCLC

Row | SMILES | GI50 (BT-549 breast) [µM] | TGI (BT-549 breast) [µM] | GI50 (HCT-15 colon) [µM] | TGI (HCT-15 colon) [µM] | GI50 (SK-OV-3 ovarian) [µM] | TGI (SK-OV-3 ovarian) [µM] | GI50 (SK-MEL-2 melanoma) [µM] | TGI (SK-MEL-2 melanoma) [µM] | GI50 (MDA-MB-435) [µM] | TGI (MDA-MB-435) [µM] | GI50 (IGROV1 ovarian) [µM] | TGI (IGROV1 ovarian) [µM] | GI50 (OVCAR-4 ovarian) [µM] | TGI (OVCAR-4 ovarian) [µM] | GI50 (NCI-H226 lung) [µM] | TGI (NCI-H226 lung) [µM] | GI50 (MCF7 breast) [µM] | TGI (MCF7 breast) [µM] | TGI (EKVX NSCLC) [µM] | GI50 (EKVX NSCLC) [µM]
1 | CC(=O)Nc1ccc2c(c1)C(c1ccccc1Cl)=Nc1c(n[nH]c1C)N2 | 6.58 | > 25 | 10.8 | > 25 | > 25 | > 25 | > 25 | > 25 | > 20 | > 25 | 5.66 | > 24 | > 15.9 | > 25 | 0.57 | > 17.7 | 2.26 | > 25 |  | 
2 | COc1ccc(C/C(=N/O)C(=O)NCCc2cc(Br)c(OCCCN(C)C)c(Br)c2)cc1Br |  |  |  |  |  |  |  | 37.4 |  |  |  |  |  | 38.8 |  |  |  |  | 43 | 
3 | CCOC(=O)c1ccc(NC(=O)Nc2nncs2)cc1 | 0.735 | 13.3 | 0.0688 | > 100 | 0.178 | 3.11 | 0.734 | 24 |  |  | 0.374 | 14.8 | 0.916 | 21.5 | 1.09 | 19.5 | 0.116 | > 32.9 |  | 
4 | COc1cc(/C=C\c2cc(OC)c(OC)c(OC)c2)cc(N/C=C\C(=O)c2ccc(OC(F)(F)F)cc2)c1OC | 5.9 | > 100 | 3.42 | > 100 | 5.38 | > 100 |  |  | 1.84 | 5.52 | 7.06 | > 100 | 7.54 | > 100 | 19.9 | > 100 | 4.08 | > 100 |  | 
5 | COC[C@@H](N=C1NC(=O)/C(=C/c2ccc3ncccc3c2)S1)c1ccccc1 | 7.85 | > 25 | 7.01 | > 25 | 9.35 | > 25 | 8.19 | 17.2 | 9.12 | > 25 | 12.9 | > 25 | 5.16 | > 25 | 6.88 | > 25 | 7.24 | > 25 |  | 
6 | CN1C(=O)CCC1(O)C1C=CC=CC1 (stereo not drawn) |  |  |  | > 100 |  | > 100 |  |  |  |  |  | > 100 |  | > 100 |  | > 100 |  |  |  | 
7 | Cc1nc([P+](c2ccccc2)(c2ccccc2)c2ccccc2)c(Sc2sc(-c3ccccc3)nc2[P+](c2ccccc2)(c2ccccc2)c2ccccc2)o1 | 1.28 | 6.24 | 2.15 | 7.68 |  |  | 2.15 | 4.92 | 1.19 | 3.46 | 1.4 | 4.83 | 0.952 | 5.82 |  |  | 0.669 | 4.81 | 5.64 | 1.1
8 | O=C1NC(Cc2ccc(O)cc2)C(=O)N2CCCC12 (stereo not drawn) |  |  |  | > 100 |  | > 100 |  | > 100 |  |  |  | > 100 |  | > 100 |  | > 100 |  |  | > 100 | 
9 | CCOC(=O)C1Cc2c(cc3c4c(cccc24)N(C(C)=O)C3)N(C)C1 (stereo not drawn) |  |  |  | > 100 |  | > 100 |  | > 100 |  | 7.04 |  | > 100 |  | > 100 |  | 9.37 |  | > 100 | > 100 | 
10 | Cn1c2c(c3ccccc31)CCN(CCCCN1CCCCC1)C2=O |  |  |  | > 100 |  | > 100 |  | > 100 |  |  |  | > 100 |  | > 100 |  |  |  |  | > 100 | 
11 | N#Cc1c(-c2ccc(Cl)c(Cl)c2)c(-c2ccc(Cl)c(Cl)c2)nn(CC(=O)O)c1=O |  |  |  | > 100 |  | > 100 |  | > 100 |  |  |  | > 100 |  | > 100 |  | > 100 |  |  | > 100 | 
12 | Cn1cc(C(=O)c2ccccc2)c2ccccc2c1=O |  |  |  | > 100 |  | > 100 |  | > 100 |  |  |  | > 100 |  | > 100 |  |  |  |  | > 100 | 
13 | COc1ccc(NC(=O)C(=O)c2c(O)c3ccc(O)cc3oc2=O)c([N+](=O)[O-])c1 |  |  |  | > 100 |  | > 100 |  | > 100 |  |  |  | > 100 |  | > 100 |  | > 100 |  |  | > 100 | 
14 | CC(=O)O[C@H]1C(=O)[C@@]2(C)C(C(OC(=O)c3ccccc3)[C@]3(O)C[C@H](OC(=O)C(OC(=O)CCCC(=O)NCCCN(C)C)C(NC(=O)c4ccccc4)c4ccccc4)C(C)=C1C3(C)C)C1(OC(C)=O)COC1C[C@@H]2O (stereo partly drawn) |  | 31.9 |  | 19.2 |  | 1.45 |  | 24.3 |  |  |  | 59 |  | > 87.9 |  | 39.1 |  | 48.5 | > 100 | 
15 | COc1ccc(C(c2cc(OC)c(OC)c(OC)c2)n2ccnc2)cc1O (stereo not drawn) |  |  | 0.464 | > 100 | 0.465 | > 100 |  |  |  |  | 0.862 | > 100 | 3.44 | > 100 | 0.64 | > 100 | 0.339 | > 100 | > 100 | 0.72
16 | O=C(Nc1ccc2[nH]nc(-c3ccncc3)c2c1)[C@@H]1CCN(CC(=O)N2CCN(c3ccc(-c4ncccn4)cc3)CC2)C1 |  | > 100 | 7.79 | > 100 | > 100 | > 100 | 0.0269 | 0.223 |  |  | 0.964 | > 100 | 5.91 | > 100 | > 100 | > 100 | > 100 | > 100 |  | 
17 | Cc1nc(-n2nc(-c3ccccc3)cc2-c2ccccc2)sc1C(=O)/C=C/c1ccc(/C=C/C(=O)c2sc(-n3nc(-c4ccccc4)cc3-c3ccccc3)nc2C)cc1 |  |  |  | > 100 |  | > 100 |  | 51.8 |  |  |  | 28.6 |  | > 100 |  | 71.2 |  |  | > 100 | 
18 | O=C(NCCCCCCCCCCCCNC(=O)c1cccc2ccccc12)c1cccc2ccccc12 |  |  |  | > 100 |  | > 66.8 |  | > 100 |  |  |  | > 100 |  | 20.5 |  | > 82.2 |  |  | > 100 | 
19 | COC(=O)C(C(=O)C(=O)Nc1c(C)cccc1C)c1cnc2ccccc2n1 (stereo not drawn) |  |  |  | > 100 |  | > 100 |  | > 100 |  |  |  | > 100 |  | > 100 |  | > 100 |  |  | > 100 | 

Source: PubChem BioAssay (NCI)
